These results are taken from patent US11998539B2, “Substituted aminoquinolones as DGKalpha inhibitors for immune activation” (Bayer Aktiengesellschaft, priority 2019, dated 2024).

pIC50: −log10 of the molar value.

In this experiment the target is DGKα (Homo sapiens (Human), UniProt P23743). As to the kind of experiment: Human DGKα kinase activity inhibition assay (ADP-Glo). It is filed as biochemical. Conditions: recombinant full-length human DGKα, 55 μM ATP, 7 μM 1,2-dioleoyl-sn-glycerol, read-out: IC50 values of examples in in vitro human DGKa kinase activity inhibition assays. The gist of the method: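 Activity was measured as ADP production, detected by luciferase luminescence after removal of unused ATP. The enzyme was baculovirus-expressed full-length human DGKα with a C-terminal FLAG tag. The substrate was 1,2-dioleoyl-sn-glycerol in detergent micelles, and compounds came from 100× DMSO solutions.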
Sequence of DGKα (P23743 other isoform, or with tags, fused parts or gaps): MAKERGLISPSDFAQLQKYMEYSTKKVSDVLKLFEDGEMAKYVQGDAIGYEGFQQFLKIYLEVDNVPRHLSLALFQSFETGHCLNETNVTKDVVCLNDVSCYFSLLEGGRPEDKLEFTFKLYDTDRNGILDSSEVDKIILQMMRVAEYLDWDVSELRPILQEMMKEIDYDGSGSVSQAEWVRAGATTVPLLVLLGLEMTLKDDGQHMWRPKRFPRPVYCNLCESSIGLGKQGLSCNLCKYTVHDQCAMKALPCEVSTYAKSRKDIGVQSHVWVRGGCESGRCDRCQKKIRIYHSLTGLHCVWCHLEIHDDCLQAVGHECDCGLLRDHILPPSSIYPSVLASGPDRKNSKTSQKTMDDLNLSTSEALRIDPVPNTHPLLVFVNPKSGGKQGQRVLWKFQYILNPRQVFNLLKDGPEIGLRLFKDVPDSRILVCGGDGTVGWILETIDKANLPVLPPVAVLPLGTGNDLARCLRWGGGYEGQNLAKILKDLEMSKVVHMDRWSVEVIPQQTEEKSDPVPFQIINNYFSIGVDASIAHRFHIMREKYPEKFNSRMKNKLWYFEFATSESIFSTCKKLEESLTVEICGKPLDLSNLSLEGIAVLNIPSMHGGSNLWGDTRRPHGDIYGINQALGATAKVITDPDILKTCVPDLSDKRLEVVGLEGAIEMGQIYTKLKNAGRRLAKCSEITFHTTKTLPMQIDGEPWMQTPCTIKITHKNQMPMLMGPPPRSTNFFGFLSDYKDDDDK
(In general: ADP-Glo turns the ADP formed in a reaction into a luminescent signal.)
As for `Cc1ccc2oc(C3CCN(c4c(C(N)=O)c(=O)n(C)c5cc(N(C)C6COC6)ccc45)CC3)nc2c1` [Example 494, 1-methyl-4-[4-(5-methyl-1,3-benzoxazol-2-yl)piperidin-1-yl]-7-[methyl(oxetan-3-yl)amino]-2-oxo-1,2-dihydroquinoline-3-carboxamide], the pIC50 (usually −log10 of the IC50, conventionally taken in molar units) is 8.21.

`Cn1c(=O)c(C(N)=O)c(N2CCC(C)(c3nnc(-c4cccc(Cl)c4)o3)CC2)c2ccccc21` [Example 465, 4-{4-[5-(3-chlorophenyl)-1,3,4-oxadiazol-2-yl]-4-methylpiperidin-1-yl}-1-methyl-2-oxo-1,2-dihydroquinoline-3-carboxamide]: the pIC50 was 6.76.

Turning to `Cn1c(=O)c(C#N)c(N2CCC(c3nc4cc(C(F)(F)F)ccc4s3)CC2)c2ccccc21` [Example 23, 1-methyl-2-oxo-4-{4-[5-(trifluoromethyl)-1,3-benzothiazol-2-yl]piperidin-1-yl}-1,2-dihydroquinoline-3-carbonitrile], the pIC50 is 7.92.

In the case of `COc1ccc(C2CCN(c3c(C#N)c(=O)n(C)c4cc(C)ccc34)CC2)cc1` [Example 91, 4-[4-(4-methoxyphenyl)piperidin-1-yl]-1,7-dimethyl-2-oxo-1,2-dihydroquinoline-3-carbonitrile], the pIC50 is 8.51.

Regarding `Cc1ccc2nc(C3CCN(c4c(C#N)c(=O)n(C)c5ccccc45)CC3)oc2c1` [Example 7, 1-methyl-4-[4-(6-methyl-1,3-benzoxazol-2-yl)piperidin-1-yl]-2-oxo-1,2-dihydroquinoline-3-carbonitrile], the pIC50 is 8.49.

Turning to `Cn1c(=O)c(C#N)c(N2CCC(c3ccc(-c4ccccc4)cc3)CC2)c2ccccc21` [Example 53, 4-[4-([1,1′-biphenyl]-4-yl)piperidin-1-yl]-1-methyl-2-oxo-1,2-dihydroquinoline-3-carbonitrile], the pIC50 was 7.89.

As for `Cn1c(=O)c(C#N)c(N2CCC(c3nc4cc(F)c(F)cc4o3)CC2)c2ccccc21` [Example 22, 4-[4-(5,6-difluoro-1,3-benzoxazol-2-yl)piperidin-1-yl]-1-methyl-2-oxo-1,2-dihydroquinoline-3-carbonitrile], the pIC50 was 8.22.

For the compound `Cc1ccc2cc(C3CCN(c4c(C#N)c(=O)n(C)c5ccccc45)CC3)ccc2n1` [Example 371, 1-methyl-4-[4-(2-methylquinolin-6-yl)piperidin-1-yl]-2-oxo-1,2-dihydroquinoline-3-carbonitrile], the pIC50 is 7.85.

In the case of `CCn1c(=O)c(C#N)c(N2CCC(c3ccc(Cl)cc3)CC2)c2ccccc21` [Example 333, 4-[4-(4-chlorophenyl)piperidin-1-yl]-1-ethyl-2-oxo-1,2-dihydroquinoline-3-carbonitrile], the pIC50 was 6.76.

As to `COc1ccc(C2CCN(c3c(C#N)c(=O)n(C)c4cc(N=S(C)(C)=O)ccc34)CC2)cc1` [Example 99, 7-{[dimethyl(oxo)-λ^6-sulfanylidene]amino}-4-[4-(4-methoxyphenyl)piperidin-1-yl]-1-methyl-2-oxo-1,2-dihydroquinoline-3-carbonitrile], the pIC50 was 7.19.

Consider `Cc1ccc2oc(C3(C)CCN(c4c(C#N)c(=O)n(C)c5cc(OCC6(C#N)CC6)ccc45)CC3)nc2c1` [Example 251, 7-[(1-cyanocyclopropyl)methoxy]-1-methyl-4-[4-methyl-4-(5-methyl-1,3-benzoxazol-2-yl)piperidin-1-yl]-2-oxo-1,2-dihydroquinoline-3-carbonitrile], for which the pIC50 was 8.03.

On to `Cc1ccc2oc(C3CCN(c4c(C#N)c(=O)n(C)c5cc(OC6CCOC6)ccc45)CC3)nc2c1` (racemic) [Example 379, (rac)-1-methyl-4-[4-(5-methyl-1,3-benzoxazol-2-yl)piperidin-1-yl]-2-oxo-7-[(oxolan-3-yl)oxy]-1,2-dihydroquinoline-3-carbonitrile], for which the pIC50 is 9.00.

Take `Cc1ccc2oc(C3(C)CCN(c4c(C(N)=O)c(=O)n(C)c5ccc(P(C)(C)=O)cc45)CC3)nc2c1` [Example 452, 6-(dimethylphosphoryl)-1-methyl-4-[4-methyl-4-(5-methyl-1,3-benzoxazol-2-yl)piperidin-1-yl]-2-oxo-1,2-dihydroquinoline-3-carboxamide]: the negative logarithm of the IC50 (pIC50) is 5.59.

Take `Cc1ccccc1-c1nnc(C2CCN(c3c(C#N)c(=O)n(C)c4ccccc34)CC2)o1` [Example 351, 1-methyl-4-{4-[5-(2-methylphenyl)-1,3,4-oxadiazol-2-yl]piperidin-1-yl}-2-oxo-1,2-dihydroquinoline-3-carbonitrile]: the pIC50 is 7.06.

In the case of `CN(C)c1ccc(C2CCN(c3c(C#N)c(=O)n(C)c4ccccc34)CC2)cc1` [Example 46, 4-{4-[4-(dimethylamino)phenyl]piperidin-1-yl}-1-methyl-2-oxo-1,2-dihydroquinoline-3-carbonitrile], the pIC50 is 8.60.

As for `COc1ccc2c(c1)c(N1CCC(c3nc(-c4ccccc4)no3)CC1)c(C(N)=O)c(=O)n2C` [Example 521, 6-methoxy-1-methyl-2-oxo-4-[4-(3-phenyl-1,2,4-oxadiazol-5-yl)piperidin-1-yl]-1,2-dihydroquinoline-3-carboxamide], the pIC50 is 7.37.

For the compound `Cc1ccc(C2CCN(c3c(C#N)c(=O)n(C)c4ccccc34)CC2)cn1` [Example 143, 1-methyl-4-[4-(6-methylpyridin-3-yl)piperidin-1-yl]-2-oxo-1,2-dihydroquinoline-3-carbonitrile], the pIC50 is 6.26.

`Cn1c(=O)c(C#N)c(N2CCC(c3nc4ccccc4s3)CC2)c2cc(C3CC3)ccc21` [Example 276, 4-[4-(1,3-benzothiazol-2-yl)piperidin-1-yl]-6-cyclopropyl-1-methyl-2-oxo-1,2-dihydroquinoline-3-carbonitrile]: the pIC50 is 6.67.

Consider `Cc1ccc2c(c1)c(N1CCCC(c3nc4ccccc4o3)CC1)c(C(N)=O)c(=O)n2C` (centres unmarked) [Example 205, 4-[4-(1,3-benzoxazol-2-yl)azepan-1-yl]-1,6-dimethyl-2-oxo-1,2-dihydroquinoline-3-carboxamide], for which the pIC50 was 8.32.

Consider `Cc1ccc2oc(C3CCN(c4c(C#N)c(=O)n(C)c5cc(NC6COC6)c(C)cc45)CC3)nc2c1` [Example 549, 1,6-dimethyl-4-[4-(5-methyl-1,3-benzoxazol-2-yl)piperidin-1-yl]-7-[(oxetan-3-yl)amino]-2-oxo-1,2-dihydroquinoline-3-carbonitrile], for which the pIC50 is 9.22.

On to `Cc1ccc2oc(C3CCN(c4c(C#N)c(=O)n(C)c5ccc(C#N)cc45)CC3)nc2c1` [Example 403, 1-methyl-4-[4-(5-methyl-1,3-benzoxazol-2-yl)piperidin-1-yl]-2-oxo-1,2-dihydroquinoline-3,6-dicarbonitrile], for which the pIC50 is 8.70.

For the compound `Cn1c(=O)c(C#N)c(N2CCC(c3ccc(N4CCCC4=O)cc3)CC2)c2ccccc21` [Example 59], the pIC50 was 7.64.

Take `Cn1c(=O)c(C#N)c(N2CCC(c3ccc4cc(C(F)F)cnc4c3)CC2)c2ccccc21` [Example 378, 4-{4-[3-(difluoromethyl)quinolin-7-yl]piperidin-1-yl}-1-methyl-2-oxo-1,2-dihydroquinoline-3-carbonitrile]: the pIC50 was 7.64.

Consider `Cc1cc(C2(C)CCN(c3c(C(N)=O)c(=O)n(C)c4ccccc34)CC2)nc2ccccc12` [Example 470, 1-methyl-4-[4-methyl-4-(4-methylquinolin-2-yl)piperidin-1-yl]-2-oxo-1,2-dihydroquinoline-3-carboxamide], for which the pIC50 was 7.89.

On to `Cn1c(=O)c(C(N)=O)c(N2CCC(c3nc4ccccc4s3)CC2)c2ccccc21` [Example 113, 4-[4-(1,3-benzothiazol-2-yl)piperidin-1-yl]-1-methyl-2-oxo-1,2-dihydroquinoline-3-carboxamide], for which the negative-log IC50 (pIC50) was 8.46.

With `COCCc1ccc2oc(C3CCN(c4c(C(N)=O)c(=O)n(C)c5ccccc45)CC3)nc2c1` [Example 295, 4-{4-[5-(2-methoxyethyl)-1,3-benzoxazol-2-yl]piperidin-1-yl}-1-methyl-2-oxo-1,2-dihydroquinoline-3-carboxamide], the pIC50 is 8.02.

Regarding `COc1ccc2c(c1)c(N1CCC(c3nc4cc(C)ccc4o3)CC1)c(C(N)=O)c(=O)n2C` [Example 501, 6-methoxy-1-methyl-4-[4-(5-methyl-1,3-benzoxazol-2-yl)piperidin-1-yl]-2-oxo-1,2-dihydroquinoline-3-carboxamide], the pIC50 was 7.68.

On to `CCC1(c2nc3ccccc3o2)CCN(c2c(C#N)c(=O)n(C)c3ccccc23)CC1` [Example 106, 4-[4-(1,3-benzoxazol-2-yl)-4-ethylpiperidin-1-yl]-1-methyl-2-oxo-1,2-dihydroquinoline-3-carbonitrile], for which the pIC50 was 9.05.

On to `Cc1ccc2c(N3CCC(C)(c4nc5ccccc5o4)CC3)c(C(N)=O)c(=O)n(C)c2c1` [Example 311, 4-[4-(1,3-benzoxazol-2-yl)-4-methylpiperidin-1-yl]-1,7-dimethyl-2-oxo-1,2-dihydroquinoline-3-carboxamide], for which the pIC50 was 8.92.

Take `Cc1ccc2oc(C3CCN(c4c(C(N)=O)c(=O)n(C)c5cc(OC6COC6)ccc45)CC3)nc2c1` [Example 485, 1-methyl-4-[4-(5-methyl-1,3-benzoxazol-2-yl)piperidin-1-yl]-7-[(oxetan-3-yl)oxy]-2-oxo-1,2-dihydroquinoline-3-carboxamide]: the pIC50 is 8.70.

In the case of `Cc1nc2ccc(C3CCN(c4c(C#N)c(=O)n(C)c5ccccc45)CC3)cc2s1` [Example 377, 1-methyl-4-[4-(2-methyl-1,3-benzothiazol-6-yl)piperidin-1-yl]-2-oxo-1,2-dihydroquinoline-3-carbonitrile], the pIC50 was 8.32.

Consider `Cn1c(=O)c(C#N)c(N2CCC(c3ccc(Cl)cc3)CC2)c2ccccc21` [Example 54, 4-[4-(4-chlorophenyl)piperidin-1-yl]-1-methyl-2-oxo-1,2-dihydroquinoline-3-carbonitrile], for which the pIC50 is 7.85.
